From paper PMC9673926, “Nucleotide binding as an allosteric regulatory mechanism for Akkermansia muciniphila β-N-acetylhexosaminidase Am2136” (Gut Microbes, 2022)
Changes are numbered by the printed parent chain.

Key:
[1] = target: T1, Am2136 E649A (Akkermansia muciniphila, UniProt B2UPR7, E649A); assay: Nucleotide binding affinity by intrinsic fluorescence, mutant; set-up: The coding region (residue Q20-L756) of Am2136 without signal peptide was based on UniProt; 6XHis (N); made in house; host or cells: E. coli BL21 (DE3)
T1 sequence (B2UPR7 20-756 E649A): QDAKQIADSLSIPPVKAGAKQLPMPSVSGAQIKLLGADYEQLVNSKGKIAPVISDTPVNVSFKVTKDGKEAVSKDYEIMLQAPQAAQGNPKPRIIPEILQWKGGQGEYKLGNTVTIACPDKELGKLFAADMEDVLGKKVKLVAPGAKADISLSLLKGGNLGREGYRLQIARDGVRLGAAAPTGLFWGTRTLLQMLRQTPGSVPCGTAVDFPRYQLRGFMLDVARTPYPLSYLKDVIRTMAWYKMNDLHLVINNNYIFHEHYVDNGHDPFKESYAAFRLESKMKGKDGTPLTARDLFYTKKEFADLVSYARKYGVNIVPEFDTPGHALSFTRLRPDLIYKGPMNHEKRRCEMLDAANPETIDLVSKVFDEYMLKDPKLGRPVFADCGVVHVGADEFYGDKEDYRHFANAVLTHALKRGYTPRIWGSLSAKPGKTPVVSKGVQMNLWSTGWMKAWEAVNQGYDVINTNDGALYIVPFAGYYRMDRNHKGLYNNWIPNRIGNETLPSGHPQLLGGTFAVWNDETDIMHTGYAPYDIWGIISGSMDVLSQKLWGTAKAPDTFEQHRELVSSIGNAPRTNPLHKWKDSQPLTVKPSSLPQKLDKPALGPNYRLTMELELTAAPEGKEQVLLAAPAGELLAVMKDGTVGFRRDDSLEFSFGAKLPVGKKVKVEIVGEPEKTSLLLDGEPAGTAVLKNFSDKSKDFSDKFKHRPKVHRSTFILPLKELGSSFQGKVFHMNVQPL
Experimental: (§1) The nucleotide binding ability was determined on Fluorescence Spectrometer Duetta (HORIBA) by measuring the change of peak intensity. The fluorescence was excited at 286 nm and emitted at 336 nm. And the measurement was processed under 400 V voltage with 2.5 nm excitation slit and 5 nm emission slit. The 120 μL reaction mixture contains 0–550 μM nucleotide, 5 μM proteins, 25 mM Tris pH 8.0 and 150 mM NaCl. The sample was incubated at 4°C for 5 min before testing.

[2] = target: T2, Am2136 Y550A (Akkermansia muciniphila, UniProt B2UPR7, Y550A); assay: as above; set-up: The coding region (residue Q20-L756) of Am2136 without signal peptide was based on UniProt; 6XHis (N); made in house; host or cells: E. coli BL21 (DE3)
T2 sequence (B2UPR7 20-756 Y550A): T1 sequence (B2UPR7 20-756 E649A) with Y531A, A630E
Experimental: as §1

Nc1nc2c(ncn2[C@@H]2O[C@H](COP(=O)(O)OP(=O)(O)O)[C@@H](O)[C@H]2O)c(=O)[nH]1 [GDP]
Kd [1]: 236 µM
Kd [2]: 193 ± 7.36 µM
